Results: patent US12638394B2, “Skin sensitization measuring reagent, method for measuring skin sensitization, and compound” (FUJIFILM Corporation, priority 2019, dated 2026)

Assay: Reactivity of nucleophilic reagent with evaluation substance (depletion, HPLC), primary evaluation
Details: 1 mmol/L test substance solution, 25° C., 24 hours
Protocol: 1) A nucleophilic reagent is dissolved in DMSO (manufactured by FUJIFILM Wako Pure Chemical Corporation) depending on its molecular weight to prepare a 2 mmol/L nucleophilic reagent solution.
2) To a 500 mL container, 149.5 mL of the buffer solution is added using a 50 mL measuring pipette, and 0.5 mL of the 2 mmol/L nucleophilic reagent solution is added and mixed by inversion so that the solution is diluted 300-fold (6.667 μmol/L). This solution is stored in a freezer at −70° C. or lower.
(§1) One solvent with which a 1 mmol/L test substance solution can be prepared is selected according to the following order of priority: water, acetonitrile, acetone, and a 5% solution of DMSO in acetonitrile. If water, acetonitrile, or acetone is selected, a 20 mmol/L test substance solution is first prepared. A suitable amount of the test substance is weighed and completely dissolved by adding the solvent to prepare a 20 mmol/L solution. A portion of the 20 mmol/L solution is then collected and diluted 20-fold with the same solvent to prepare a 1 mmol/L test substance solution. If a 5% by mass solution of DMSO in acetonitrile is selected, a 20 mmol/L test substance solution is prepared in the same manner as above. A portion of the solution is then collected and diluted 20-fold with acetonitrile to prepare a 1 mmol/L test substance solution.
Test substance solutions are prepared on a 96-well plate (U96 PP-0.5 ML NATURAL, Thermo (NUNC)), mainly using a 12-channel pipette, and the reagent is added in the following amount:
Nucleophilic reagent: 150 μL
(§2) Test substance solution: 50 μL
(§3) The plate is firmly sealed with a plate seal (resistant embossed seal (TORAST™ 96-well Seal E Type (TORAST is a registered trademark)), Shimadzu GLC Ltd.) and is shaken on a plate shaker (Titramax 100, Heidolph Instruments). After being spun down in a centrifuge, the reaction solutions are incubated at 25° C. in a light-shielded state for 24 hours.
(§4) After incubation for 24 hours, the plate seal is removed, and 50 μL of the reaction stop solution is added to each sample to stop the reaction.
The HPLC measurement conditions for the nucleophilic reagents are given below. As the elution conditions, condition 1, 2 or 3 was selected depending on the nucleophilic reagent.
(§5) The depletion of the nucleophilic reagent is calculated from the mean peak area of the nucleophilic reagent by the following equation: […]
(§6) Ten substances shown in the following table were used for reactivity evaluation. For primary evaluation, the upper three substances were used. […] For secondary evaluation, the lower seven substances were used. The substances selected for the secondary evaluation were substances that are difficult to distinguish between sensitizers and non-sensitizers by analysis using NAC and NAL. As above, the substances selected for the secondary evaluation were five substances that mainly react with cysteine and two substances that mainly react with lysine.
With `NCCCCC(NC(=O)[C@H](CS)NC(=O)C(Cc1ccncc1)NC(=O)Cc1ccc2ccccc2c1)C(=O)O` (some centres unmarked) [Compound 22] the “reactivity (nucleophilic reagent depletion) with 2-methyl-2H-isothiazol-3-one” value (“reactivity … with 2-methyl-2H-isothiazol-3-one” below) was “about 100%”. For `NCCCCC(NC(=O)[C@H](CS)NC(=O)[C@H](Cc1c[nH]cn1)NC(=O)Cc1ccc2ccccc2c1)C(N)=O` (some centres unmarked) [Compound 19], the “reactivity … with 2-methyl-2H-isothiazol-3-one” value was “about 100%”. In the case of `NCCCCC(NC(=O)[C@H](CS)NC(=O)[C@H](Cc1ccccn1)NC(=O)Cc1ccc2ccccc2c1)C(N)=O` (some centres unmarked) [Compound 16], the “reactivity … with 2-methyl-2H-isothiazol-3-one” value is reported as “about 100%”. With `NCCCC[C@H](NC(=O)C(Cc1ccncc1)NC(=O)Cc1ccc2ccccc2c1)C(=O)NC(CS)C(=O)O` (some centres unmarked) [Compound 27] the “reactivity … with 2-methyl-2H-isothiazol-3-one” value was “about 100%”. In the case of `NCCCCC(NC(=O)[C@H](CS)NC(=O)[C@H](Cc1ccccn1)NC(=O)Cc1ccc2ccccc2c1)C(=O)O` (some centres unmarked) [Compound 21], the “reactivity … with 2-methyl-2H-isothiazol-3-one” value is reported as “about 100%”. With `NCCCCC(NC(=O)[C@H](CS)NC(=O)C(Cc1c[nH]cn1)NC(=O)Cc1ccc2ccccc2c1)C(=O)O` (some centres unmarked) [Compound 24] the “reactivity … with 2-methyl-2H-isothiazol-3-one” value was “about 100%”. With `NCCCC[C@H](NC(=O)C(Cc1c[nH]cn1)NC(=O)Cc1ccc2ccccc2c1)C(=O)NC(CS)C(=O)O` (some centres unmarked) [Compound 29] the “reactivity … with 2-methyl-2H-isothiazol-3-one” value was “about 100%”. For `CC(=O)N[C@@H](CS)C(=O)N[C@@H](CCCCN)C(=O)N[C@@H](CC(=O)O)C(=O)NCc1cccc2ccccc12` [Compound 4], the “reactivity … with 2-methyl-2H-isothiazol-3-one” value was “about 100%”. In the case of `NCCCC[C@H](NC(=O)[C@H](CS)NC(=O)CO)C(=O)N[C@@H](CC(=O)O)C(=O)NCc1cccc2ccccc12` [Compound 13], the “reactivity … with 2-methyl-2H-isothiazol-3-one” value is reported as “about 100%”. For `NCCCCC(NC(=O)Cc1ccc2ccccc2c1)C(=O)N[C@@H](CS)C(=O)O` (some centres unmarked) [Compound 30], the “reactivity … with 2-methyl-2H-isothiazol-3-one” value was “about 100%”.

Assay: Depletion of nucleophilic reagent by evaluation substance (HPLC)
Details: 1 mmol/L test substance solution, 25° C., 24 hours
Description: as §1, §3, §4, §5, §6
Using the three substances shown in the following table, 1 mmol/L solutions were prepared and used for testing.
A solution prepared by dissolving NAC and NAL in a phosphate buffer solution (pH 8.0) prepared in accordance with “(1-2) 100 mmol/L Phosphate Buffer Solution (pH 8.0)” of “(1) Preparation of Various Solutions” above such that the concentration of each nucleophilic reagent was 13.333 μmol/L was used as a nucleophilic reagent stock solution.
Nucleophilic reagent stock solution: NAC and NAL, 75 μL each
as §2
The procedures described in “(4-2) Reaction” and “(4-3) Reaction Stop” of “(4) Reaction” above were performed.
In addition, the nucleophilic reagent depletion (%) was determined by the method described in “(6) Data Analysis” above.
In the case of `CC(=O)N[C@@H](CCCCN)C(=O)N[C@@H](CS)C(=O)NCc1cccc2ccccc12` [Compound 2], the “depletion for 5-methyl-2,3-hexanedione” value is reported as 16.7%, the depletion for diphenylcyclopropenone is reported as 34.9% and the “depletion for nonanoyl chloride” value is reported as 65.2%. For `CC(=O)N[C@@H](CS)C(=O)N[C@@H](CCCCN)C(=O)N[C@@H](CC(=O)O)C(=O)NCc1cccc2ccccc12` [Compound 4], the “depletion for 5-methyl-2,3-hexanedione” value was 13.8%, the depletion for diphenylcyclopropenone was 100% and the “depletion for nonanoyl chloride” value was 67.6%.

Assay: Reactivity of nucleophilic reagent, secondary evaluation with seven substances
Details: all six substances except 5-methyl-2,3-hexanedione
Description: as §1
as §3, with “hours. […]” for “hours.”
as §5
In the case of `CC(=O)N[C@@H](CCCCN)C(=O)N[C@@H](CS)C(=O)NCc1cccc2ccccc12` [Compound 2], the “reactivity with six secondary evaluation substances compared with NAC or NAL” value is reported as “higher than that of NAC or NAL alone and the mean depletion”. In the case of `CC(=O)N[C@@H](CS)C(=O)N[C@@H](CCCCN)C(=O)N[C@@H](CC(=O)O)C(=O)NCc1cccc2ccccc12` [Compound 4], the “reactivity with six secondary evaluation substances compared with NAC or NAL” value is reported as “higher than that of NAC or NAL alone and the mean depletion”.

Assay: not given
Details: class given for the evaluation substance; cited from earlier work
For `Cn1sccc1=O` [2-Methyl-2H-isothiazol-3-one], the Skin sensitization is given as “Moderate”. In the case of `CCCCCCCCC(=O)Cl` [Nonanoyl chloride], the Skin sensitization is listed as “Moderate”. For `CC(C=O)Cc1ccc(C(C)C)cc1` (centres unmarked) [Cyclamen aldehyde], the Skin sensitization is given as “Strong sensitizer”. In the case of `O=C(O)c1ccccc1O` [Salicylic acid], the Skin sensitization is given as “Non-sensitizer”. In the case of `C=C(C)C(=O)OCCOC(=O)C(=C)C` [Ethylene glycol dimethacrylate], the Skin sensitization is listed as “Strong sensitizer”. In the case of `O=C(O)c1ccc2c(c1)C(=O)OC2=O` [Trimellitic anhydride], the Skin sensitization is given as “Strong sensitizer”. For `O=c1c(-c2ccccc2)c1-c1ccccc1` [Diphenylcyclopropenone], the Skin sensitization is given as “Strong sensitizer”. In the case of `CC(CC=O)CCCC(C)(C)O` (centres unmarked) [Hydroxycitronellal], the Skin sensitization is listed as “Strong sensitizer”.
